The record followed here is PubChem BioAssay AID1902 (Broad Institute, 2009).

This experiment has as its target S. pyogenes SKKanGAS, kanamycin survival, BacTiterGlo, 6 h. The experiment can be described thus: SKKanGAS survival reduction under kanamycin, dose response, streptokinase promoter inhibitor project, SKKanGAS strain, luminescence, dose confirmation (AID 1902).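 Also: lower survival reflects blocked streptokinase promoter driving kanamycin resistance gene.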

Calls of active or inactive are those of the source.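 The calls were made as follows: active = EC50 no more than a set limit of log units above the highest dose; inactive = the rest.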

The term EC50 denotes the concentration giving half of the maximal effect. Turning to `O=C(O)c1ccc(CSc2nc(-c3ccc(Cl)cc3)cc(C(F)(F)F)n2)cc1`, the EC50 was 2.69 µM.
With `CCc1ccccc1NC(=O)NC(C)c1ccc2c(c1)OCO2` (stereo not given) the figure was > 15 µM (inactive); with `CCN1/C(=C\c2ccc3cc(C)ccc3[n+]2CC)Sc2cc(C)c(C)cc21`, 4.23 µM; with `Cc1conc1NC(c1cccs1)c1ccc2cccnc2c1O` (stereo not given), 1.23 µM.
Turning to `O=C(NC(NC(=S)Nc1ccc(Cl)c(Cl)c1)C(Cl)(Cl)Cl)c1ccco1` (stereo not given), the EC50 was 3.41 µM.
With `C=C(C)COc1ccc(-c2[nH]ncc2Oc2cccc(OC)c2)c(O)c1` the figure was 5.93 µM; with `CCn1cnc2sc(C(=O)Oc3cccc(C)c3)c(C)c2c1=O`, 4.08 µM; with `Cc1nnc(SCC2=C(C(=O)O)N3C(=O)C(NC(=O)Cn4ncc(Cl)c4C)C3SC2)s1` (stereo not given), less than 0.06 µM.
With `COCC1=C(C(=O)OC(C)OC(=O)OC(C)C)N2C(=O)[C@@H](NC(=O)/C(=N\OC)c3csc(N)n3)[C@H]2SC1` (stereo not given in full) the figure was 0.797 µM.
Turning to `NC(=S)N/N=C\c1c(OCc2ccccc2Cl)ccc2ccccc12`, the EC50 was 2.53 µM.
With `COc1ccccc1CCNC(=O)C(=O)c1cn(CC(=O)N2CCCC2)c2ccccc12` the figure was > 15 µM (inactive); with `Cc1nn(C(C)C(=O)NC2C(=O)N3C(C(=O)O)=C(CSc4nnnn4C)CSC23)cc1Cl` (stereo not given), less than 0.06 µM; with `Brc1ccccc1C1Nc2cccc3cccc(c23)N1`, 5.03 µM.
The result for `O=C(N/N=C/c1ccccc1O)NC12CC3CC(CC(C3)C1)C2` reads 8.68 µM.
The result for `CCOC(=O)c1c(NC(=O)c2c(N)n(CCCOC)c3nc4ccccc4nc23)sc2c1CCCC2` reads 8.85 µM.
With `Cc1ccccc1C(=O)Nc1nc(=S)ss1`, the concentration giving a half-maximal response (EC50) is 2.46 µM.
With `CC(=O)NC(c1ccc(Cl)cc1Cl)c1ccc2cccnc2c1O` (stereo not given) the figure was 4.2 µM; with `COC(=O)/C=C1\SC(=Nc2ccc(Cl)c(Cl)c2)NC1=O`, 8.93 µM.
The result for `COc1ccc(/C=N/n2c(C)nc3c([nH]c4ccccc43)c2=O)cc1CN1CCCC(C)(C)C1` reads 7.93 µM; that for `O=C(CSc1nc2ccccc2c(=O)n1NC(=O)c1ccccc1)c1ccc(Cl)cc1`, 11.3 µM.
The result for `O=C(NC(NC(=S)Nc1ccccc1Cl)C(Cl)(Cl)Cl)c1cccc(Cl)c1` (stereo not given) reads 1.59 µM.
Turning to `CC/C(=C\C1CCCCC1)C(NP(=O)(c1ccccc1)c1ccccc1)c1ccccc1` (stereo not given), the EC50 is 1.14 µM.
As for `N#Cc1c(NC(=S)NC(=O)C2CCCC2)sc2c1CCCCC2`, the EC50 is 6.33 µM.
As for `Cc1nn(-c2ccccc2)c(Cl)c1/C=N/NC(=O)c1ccc(NS(=O)(=O)c2cccs2)cc1`, the EC50 was 2.34 µM.
On to `Cc1nn2c(COc3ccc(NC(=O)c4ccccc4Cl)cc3)nnc2c2ccccc12`, for which the EC50 was 1.63 µM.
`COc1ccc(-c2nc(NC(=O)C3CC(=O)N(c4ccc5c(c4)OCCO5)C3)sc2C)cc1` (stereo not given): the EC50 is 12 µM.
The result for `O=C(Nc1nc(-c2ccccn2)cs1)c1ccc(S(=O)(=O)N2CCCCC2)cc1` reads 1.48 µM; that for `CC1(C)N=C(N)N=C(N)N1c1ccccc1`, 0.325 µM.
In the case of `COc1ccc(C(=O)NNC(=S)NC(=O)c2cccs2)cc1`, the EC50 was 2.2 µM.
The result for `Cc1cccc(NC(=O)NCc2ccc3c(c2)OCO3)c1` reads > 15 µM (inactive).
With `O=C(Nc1ccccc1)Nc1cc(OCC(F)(F)F)cc(OCC(F)(F)F)c1` the figure was 4.78 µM.
Consider `CC(C)OC(=O)c1cccnc1N1CCN(c2cccc(Cl)c2)CC1`, for which the EC50 was 4.36 µM.
The result for `O=C(N/N=C/c1ccccc1O)c1cccc2ccccc12` reads 3.08 µM.
Consider `O=C(N/N=C/c1c(O)ccc2ccccc12)c1ccc(Br)o1`, for which the EC50 was 2.3 µM.
The result for `Nc1c(-c2ccccc2)c(CSc2nc3ccccc3[nH]2)nn1-c1cccc(Cl)c1` reads 1.51 µM; that for `COc1cc(/C=C2/SC(=S)N(Cc3ccccc3)C2=O)ccc1O`, 5.8 µM.
The result for `CCC(C)Sc1cc(-c2nc3ccccn3c2NC2CCCCC2)ccc1OC` (stereo not given) reads 2.94 µM; that for `Cc1ccc(OCC(=O)NNC(=S)NC(=O)c2ccc(Br)o2)c(C)c1`, less than 0.06 µM; that for `S=C(NCC1CCCCC1)Nc1ccc(Oc2ccccc2)cc1`, 11 µM.
The result for `Cc1nc(N)nc(N)c1CCCc1ccc(Cl)c(Cl)c1` reads 0.87 µM; that for `O=[N+]([O-])c1cc(C(F)(F)F)cc([N+](=O)[O-])c1NCCNC(=S)Nc1ccc(Cl)c(Cl)c1`, 1.12 µM; that for `O=C(CSc1nnc(CNC(=O)c2c(F)cccc2F)o1)NCCc1ccccc1`, > 15 µM (inactive).
In the case of `Cn1c(N)c(C(=O)COC(=O)/C=C/c2ccc(OC(F)F)cc2)c(=O)n(C)c1=O`, the EC50 is 1.47 µM.
With `CCOC(=O)C1=C(N)c2ccccc2CC1C1CCCC1` (stereo not given) the figure was 3.26 µM; with `O=C(CCC(=O)Nc1cc(C(F)(F)F)ccc1Cl)N/N=C\c1cc([N+](=O)[O-])ccc1O`, 0.658 µM; with `O=C(O)c1ccc(N/N=C/c2ccc(-c3cc(Cl)ccc3Cl)o2)cc1`, 2.48 µM.
As to `CC1CCCCC1NC(=O)CCn1ccc2cc(S(=O)(=O)N3CCCC3)ccc21` (stereo not given), the EC50 is > 15 µM (inactive).
Take `CCCCOc1ccc(-c2c(C#N)c(N)nc(SCC(N)=O)c2C#N)cc1`: the EC50 was 4.61 µM.
With `CCCCCCCCCCCCOC(=O)C[N+](C)(C)C` the figure was 3.02 µM.
With `O=C(Nc1nc2ccccc2[nH]1)c1cccc(Cl)c1`, the EC50 is 10.4 µM.
With `Cc1cc(/C=C2/C(=N)N3C(=NC2=O)SN=C3S(C)(=O)=O)c(C)n1-c1ccc(F)cc1` the figure was 4.98 µM; with `COc1ccc(OC)c(NC(=O)NC2CCCc3ccccc32)c1` (stereo not given), > 15 µM (inactive).
Regarding `COc1cccc(-c2nc(NC3CCCC3)c3ccccc3n2)c1O`, the EC50 is 5.84 µM.
In the case of `FC(F)(F)c1cc(CCN2C(=S)NC[C@@H]2CC2CCCCC2)cc(C(F)(F)F)c1`, the EC50 is 3.7 µM.
The result for `CCCC(=O)NC(c1ccc(Cl)cc1Cl)c1ccc2cccnc2c1O` (stereo not given) reads 0.912 µM; that for `Nc1c(S(=O)(=O)c2ccccc2)c2nc3ccccc3nc2n1/N=C/c1cccc(O)c1`, 5.22 µM; that for `Cc1cccc(N=C2NN=C(c3c(C)[nH]c4ccccc34)CS2)c1`, 3.02 µM.
The result for `COc1ccc(Sc2ccc(NC(=O)c3ccccc3Cl)cc2C#N)cc1` reads 2.51 µM; that for `Cc1ccc(-n2c(SCC(=O)Nc3ccc4c5c(cccc35)CC4)nc(O)cc2=O)cc1`, 11.9 µM; that for `CN(/N=C/c1cc(Br)cc(Br)c1O)c1cccc(C(F)(F)F)n1`, 0.544 µM.
With `Cn1c(=O)c(NCCc2ccccc2)c2c3c(cccc31)C(=O)c1ccccc1-2` the figure was 8.86 µM.
`O=c1c2c(nc3c(-c4ccc(Cl)cc4)c[nH]n13)CCC2`: the concentration giving a half-maximal response (EC50) is 3.38 µM.
With `CC12CCC(C/C1=N\N=C1\NC(=O)/C(=C\c3cccc(Br)c3)S1)C2(C)C` (stereo not given) the figure was 0.638 µM; with `Cc1nn(CC(O)CN2c3ccccc3Sc3ccccc32)c(C)c1Br` (stereo not given), 2.15 µM.
Turning to `COc1ccc(CN2C(=O)c3ccccc3C(/C=N/OCc3ccc(Cl)cc3)C2=O)cc1` (stereo not given), the EC50 is 1.11 µM.
The result for `FC(F)(F)c1ccccc1/C=N/n1c(C2CCCCC2)n[nH]c1=S` reads 4.76 µM; that for `CC(C)C[C@H](NC(=O)c1nc[nH]c1C(=O)NC1CCN(C(=O)OC(C)(C)C)CC1)C(=O)OCc1ccccc1`, 5.47 µM; that for `CCC1(C)Cc2ccccc2-c2c1c(=O)n(Cc1ccccc1)c1nnnn21` (stereo not given), 1.51 µM.
Turning to `Oc1cccc2ccc(/C=C/c3ccccc3Cl)nc12`, the EC50 is 0.248 µM.
As for `CC(C)COCc1ccc(O)c2ncccc12`, the EC50 was 1.02 µM.
Turning to `CC(C)(C)c1ccc(C(=O)CC(=O)c2cc(Cl)ccc2O)cc1`, the EC50 is 0.349 µM.
With `Cc1cc(C)c2nc(-c3ccncc3)cc(C(=O)N3CCN(Cc4ccccc4Cl)CC3)c2c1` the figure was 4.72 µM.
With `CC1(C)COCN1S(=O)(=O)c1ccc(C(=O)Nc2nnc(-c3ccc(Cl)s3)o2)cc1`, the EC50 is 0.459 µM.
Turning to `O=[N+]([O-])c1cc(C(F)(F)F)ccc1NCCNC(=S)Nc1ccc(Cl)cc1`, the EC50 was 4.79 µM.
The result for `COc1ccc(NC(=O)c2cc3cccc(OC)c3oc2=Nc2ccc(C(=O)O)cc2)cc1OC` reads 2.1 µM.
As for `CC1Oc2cc3oc4c(O)c5c(cc4c(=O)c3c(O)c2C1(C)C)C=CC(C)(C)O5` (stereo not given), the EC50 was 2.48 µM.
In the case of `COC(=O)C1(C(C[N+](=O)[O-])c2ccc(C)cc2)C(=O)NCC1c1ccco1` (stereo not given), the EC50 is 7.39 µM.
With `CCc1c(C2(O)CCCCC2)[nH]c2c(C(=O)OC)cc(Cl)cc12` the figure was 4.12 µM; with `CCOc1cc(/C=N/Nc2cccc(C(=O)O)c2)ccc1OC(=O)c1ccccc1`, 5.18 µM.
The result for `NS(=O)(=O)c1ccc(-c2ccc(/C=C3\SC(=S)N(C4CCS(=O)(=O)C4)C3=O)o2)cc1` (stereo not given) reads 4.95 µM; that for `O=C(Nc1nnc(-c2ccncc2)o1)c1ccc2ccccc2c1`, 5.02 µM.
`CC(C)CC(=O)Nc1ccc(C(=O)NNC(=S)NC(=O)C2CCCCC2)cc1`: the EC50 was 1 µM.
The result for `O=C(Nc1nc(-c2ccccc2)c(-c2ccccc2)o1)c1ccc(F)cc1` reads 0.561 µM.
`CN1C(=O)/C(=C/c2cccn2-c2ccc3ccccc3c2)C(=O)NC1=S`: the EC50 is 5.74 µM.
As for `COc1cccc(NC(=O)Nc2nc(SC(C)(C)C)ns2)c1`, the EC50 is 8.16 µM.
For the compound `O=C(NC(=S)N1CCN(c2nc(-c3ccccc3)cs2)CC1)c1cccnc1`, the EC50 is 4.08 µM.
On to `O=C(N/N=C/c1cc(Br)ccc1O)c1ccncc1`, for which the EC50 is 1.15 µM.
Consider `Cc1ccc(C(=O)N2CCOCC2)cc1Cl`, for which the EC50 is > 15 µM (inactive).
In the case of `Nc1nonc1-c1nc2ccccc2n1CC(=O)N/N=C\c1ccc(-c2ccc(Cl)cc2)o1`, the EC50 is 1.07 µM.
As to `c1ccc(-c2nnc(-c3ccccn3)nc2NC2CCCCC2)cc1`, the EC50 is 2.95 µM.
The result for `Cc1cc2nc(CSc3ccccc3)cc(=O)n2[nH]1` reads 3.82 µM; that for `Cc1ccc(Oc2nc(-c3ccccn3)nc3ccccc23)cc1`, less than 0.06 µM.
For the compound `Cc1cccc(OCC(=O)Nc2ccncc2)c1`, the EC50 is > 15 µM (inactive).
With `CCOC(=O)c1csc(NC(=O)c2ccc3c(c2)OCCO3)n1`, the EC50 was > 15 µM (inactive).
With `CCCC(O)(c1ccc(Br)cc1)C(CN1CCOCC1)c1ccc(Cl)cc1` (stereo not given) the figure was 10.1 µM.
